# Data reported in ChEMBL document CHEMBL3877304, “Peptide-Boronic Acid Inhibitors of Flaviviral Proteases: Medicinal Chemistry and Structural Biology” (J Med Chem, 2017).
# Where a SMILES comes first, the peptide text is derived from it. [ ]: non-standard residue; d: D form. The star is where a group is joined. Phe(4-guanidino) = N=C(N)Nc1ccc(C[C@H](N)C(=O)O)cc1; Phe(4-CH2NH2) = NCc1ccc(C[C@H](N)C(=O)O)cc1; Phe(4-NH2) = Nc1ccc(C[C@H](N)C(=O)O)cc1; Bz = O=C(c1ccccc1)*
# Assays:
# [1] = Inhibition of Zika virus N-terminal His-tagged NS2B-NS3 protease expressed in Escherichia coli BL21 GOLD(DE3) using Bz-Nle-Lys-Lys-Arg-AMC as substrate preincubated for 10 mins followed by substrate addition by fluorophotometric method
# [2] = Inhibition of Dengue virus serotype 2 His-tagged NS2B-NS3 protease using Abz-Nle-Lys-Arg-Arg-Ser-3-(NO2)Tyr as substrate preincubated for 15 mins followed by substrate addition measured for 15 mins by fluorescence assay; design: species or system dengue virus type 2
# [3] = system: West Nile virus; experiment: Antiviral activity against West Nile virus infected in African green monkey Vero E6 cells assessed as virus yield reduction at 50 uM after 3 days by crystal violet staining based plaque assay relative to control; format: functional; design: scale not given: the % may be the effect or the level left
# [4] = system: dengue virus type 2; experiment: Antiviral activity against Dengue virus serotype 2 infected in African green monkey Vero E6 cells assessed as virus yield reduction after 7 days by crystal violet staining based plaque assay; format: functional, cell-based; conditions: 168 h
# [5] = Inhibition of West Nile virus His-tagged NS2B-NS3 protease expressed in Escherichia coli BL21(DE3) using Abz-Gly-Leu-Lys-Arg-Gly-Gly-3-(NO2)Tyr as substrate preincubated for 15 mins followed by substrate addition measured for 15 mins by fluorescence assay
# [6] = Cytotoxicity against human HuH7 cells assessed as reduction in cell viability after 48 hrs by CellTiter-Glo assay; format: toxicity, cell-based, Huh-7
# [7] = system: West Nile virus; experiment: Inhibition of West Nile virus His-tagged NS2B-NS3 protease expressed in Escherichia coli BL21(DE3) at 50 uM using Abz-Gly-Leu-Lys-Arg-Gly-Gly-3-(NO2)Tyr as substrate preincubated for 15 mins followed by substrate addition measured for 15 mins by fluorescence assay relative to control
# [8] = system: dengue virus type 2; experiment: Antiviral activity against Dengue virus serotype 2 infected in African green monkey Vero E6 cells assessed as virus yield reduction at 3.1 uM after 7 days by crystal violet staining based plaque assay relative to control; format: functional; design: scale not given: the % may be the effect or the level left
# [9] = system: West Nile virus; experiment: Antiviral activity against West Nile virus infected in African green monkey Vero E6 cells assessed as virus yield reduction after 3 days by crystal violet staining based plaque assay; format: functional, cell-based; conditions: 72 h
# [10] = system: dengue virus type 2; experiment: Antiviral activity against Dengue virus serotype 2 infected in African green monkey Vero E6 cells assessed as virus yield reduction at 50 uM after 7 days by crystal violet staining based plaque assay relative to control; format: functional; design: scale not given: the % may be the effect or the level left
# [11] = system: dengue virus type 2; experiment: Inhibition of Dengue virus serotype 2 His-tagged NS2B-NS3 protease expressed in Escherichia coli BL21(DE3) at 50 uM using Abz-Nle-Lys-Arg-Arg-Ser-3-(NO2)Tyr as substrate preincubated for 15 mins followed by substrate addition measured for 15 mins by fluorescence assay relative to control
Structure (SMILES),IC50 [1] [nM],IC50 [2] [nM],Ki [2] [nM],Activity [3] [%],IC50 [5] [nM],Ki [5] [nM],CC50 at 48 h [6] [nM],inhibition [7] [%],inhibition [11] [%],other results
N=C(N)NCCC[C@H](NC(=O)[C@H](Cc1cccc(NC(=N)N)c1)NC(=O)c1ccccc1)B(O)O,1900,110,91,38,310,300,≥ 100000,–,–,EC50 [4]: 48000 nM
CC(C)(C)c1ccc(C(=O)N[C@@H](Cc2ccc(NC(=N)N)cc2)C(=O)N[C@@H](CCCNC(=N)N)C(N)=O)cc1,–,145000,–,–,–,–,–,34,–,–
N=C(N)NCCC[C@H](NC(=O)[C@H](Cc1ccc(N)cc1)NC(=O)c1ccccc1)B(O)O,> 40000,7400,4200,–,7400,6000,10100,–,–,Activity [8]: 44%; EC50 [9]: 1500 nM
N=C(N)NCCC[C@H](NC(=O)[C@@H](NC(=O)c1ccccc1)c1cccc(NC(=N)N)c1)B(O)O,1200,260,220,47,140,120,> 100000,–,–,Activity [10]: 24%
N=C(N)NCCC[C@H](NC(=O)[C@H](Cc1ccc(CN)cc1)NC(=O)c1ccccc1)B(O)O,250,66,51,–,110,82,> 100000,–,–,Ki [1]: 40 nM; EC50 [9]: 38000 nM; EC50 [4]: 30000 nM
N=C(N)NCCC[C@H](NC(=O)c1ccccc1)B(O)O,> 50000,–,–,19,–,–,> 100000,18,51.9,Activity [10]: 12%
NCCC[C@H](NC(=O)c1ccccc1)C(N)=O,–,–,–,–,–,–,–,18,2,–
N=C(N)NCCC[C@H](NC(=O)[C@@H](NC(=O)c1ccccc1)c1cccc(NC(=N)N)c1)C(N)=O,–,–,–,–,–,–,–,22,9.8,–
N=C(N)NCCC[C@H](NC(=O)[C@H](Cc1ccc(CN)cc1)NC(=O)c1ccccc1)C(N)=O (Bz-[Phe(4-CH2NH2)]-Arg-NH2),–,–,–,–,–,–,–,20,6.6,–
N=C(N)NCCC[C@H](NC(=O)[C@H](Cc1ccc(N)cc1)NC(=O)c1ccccc1)C(N)=O (Bz-[Phe(4-NH2)]-Arg-NH2),–,–,–,–,–,–,–,13,5.2,–
N=C(N)NCCC[C@H](NC(=O)[C@H](Cc1cccc(NC(=N)N)c1)NC(=O)c1ccccc1)C(N)=O,–,211000,–,–,–,–,–,33,–,–
N=C(N)NCCC[C@H](NC(=O)[C@H](Cc1ccc(NC(=N)N)cc1)NC(=O)c1ccccc1)B(O)O,830,36,27,–,71,65,> 100000,–,–,EC50 [9]: 25000 nM; EC50 [4]: 18000 nM
N=C(N)NCCC[C@H](NC(=O)[C@H](Cc1ccc(NC(=N)N)cc1)NC(=O)c1ccccc1)C(N)=O (Bz-[Phe(4-guanidino)]-Arg-NH2),–,87000,29000,–,–,–,–,34,–,–
CC(C)(C)c1ccc(C(=O)N[C@@H](Cc2ccc(NC(=N)N)cc2)C(=O)N[C@@H](CCCNC(=N)N)B(O)O)cc1,2100,110,78,30,210,160,> 100000,–,–,EC50 [4]: 19000 nM
N=C(N)NCCC[C@H](NC(=O)c1ccccc1)C(N)=O,–,–,–,–,–,–,–,9.6,9.7,–
NCCC[C@H](NC(=O)c1ccccc1)B(O)O,> 50000,–,–,33,–,–,> 100000,30,8.3,Activity [10]: 7.5%
